Test results taken from patent US9980943B2, “Methods of treating muscular dystrophy” (BOARD OF REGENTS OF THE NEVADA SYSTEM OF HIGHER EDUCATION, …, priority 2013, dated 2018).

Tests used:
Assay type in all cases: cell-based, mouse
[1] = system: β-galactosidase in CMV-LacZ C2C12 myotubes; assay: CMV-LacZ secondary screen in C2C12 myotubes (β-Gal stabilizing assay); details: C2C12 CMV-LacZ myotubes, fold relative to DMSO
Procedure, shortened: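 CMV-LacZ C2C12 line (clonal, FDG-screened); myoblasts/myotubes dosed 0.5–40 μM (0.5, 1, 5, 10, 20, 40 μM); n=2 per point; β-gal stabilization read-out.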

[2] = system: α7 integrin (LacZ reporter in α7+/LacZ myotubes); assay: Myotube α7 integrin FDG assay (Burkin assay in myotubes, 96-well); details: myotubes
[3] = system: α7 integrin (LacZ reporter in α7βgal+/− myoblasts); assay: Myoblast α7+/LacZ integrin FDG assay (Burkin assay in myoblasts, 96-well); details: α7+/LacZ myoblasts, 96-well

## CNC(=S)N1CCC(NC(=O)C(Cc2ccc(F)cc2)NC(C)=O)CC1 (stereo not shown) [MLS000710130-01]
[1]; 5 uM
  CMV-LACZ in Myotubes, signal relative to DMSO: 0.8144
[1]; 10 uM
  CMV-LACZ in Myotubes, signal relative to DMSO: 0.8646
[1]; 20 uM
  CMV-LACZ in Myotubes, signal relative to DMSO: 0.9864
[1]; 40 uM
  CMV-LACZ in Myotubes, signal relative to DMSO: 0.9336
[2]; 0.5 uM
  Burkin Assay in Myotubes (signal relative to DMSO): 0.9811
[2]; 1 uM
  Burkin Assay in Myotubes (signal relative to DMSO): 0.8524
[2]; 5 uM
  Burkin Assay in Myotubes (signal relative to DMSO): 0.6183
[2]; 10 uM
  Burkin Assay in Myotubes (signal relative to DMSO): 0.6452
[2]; 20 uM
  Burkin Assay in Myotubes (signal relative to DMSO): 1.044
[2]; 40 uM
  Burkin Assay in Myotubes (signal relative to DMSO): 1.064
[3]; 0.5 uM
  Burkin Assay in Myoblasts, value relative to DMSO: 0.9666
[3]; 1 uM
  Burkin Assay in Myoblasts, value relative to DMSO: 1.103
[3]; 5 uM
  Burkin Assay in Myoblasts, value relative to DMSO: 1.006
[3]; 10 uM
  Burkin Assay in Myoblasts, value relative to DMSO: 1.036
[3]; 20 uM
  Burkin Assay in Myoblasts, value relative to DMSO: 0.8326
[3]; 40 uM
  Burkin Assay in Myoblasts, value relative to DMSO: 0.8689

## CN(C)CCNc1ncnc2sc(-c3ccccc3)cc12 [MLS001179717-01]
[1]; 5 uM
  CMV-LACZ in Myotubes, signal relative to DMSO: 1.084
[1]; 10 uM
  CMV-LACZ in Myotubes, signal relative to DMSO: 0.8133
[1]; 20 uM
  CMV-LACZ in Myotubes, signal relative to DMSO: 0.5748
[1]; 40 uM
  CMV-LACZ in Myotubes, signal relative to DMSO: 0.4829
[2]; 0.5 uM
  Burkin Assay in Myotubes, α7 integrin LacZ reporter signal relative to DMSO: 0.8788
[2]; 1 uM
  Burkin Assay in Myotubes, α7 integrin LacZ reporter signal relative to DMSO: 1.027
[2]; 5 uM
  Burkin Assay in Myotubes, α7 integrin LacZ reporter signal relative to DMSO: 0.744
[2]; 10 uM
  Burkin Assay in Myotubes, α7 integrin LacZ reporter signal relative to DMSO: 0.6812
[2]; 20 uM
  Burkin Assay in Myotubes, α7 integrin LacZ reporter signal relative to DMSO: 0.5137
[2]; 40 uM
  Burkin Assay in Myotubes, α7 integrin LacZ reporter signal relative to DMSO: 0.2663
[3]; 0.5 uM
  Burkin Assay in Myoblasts, signal relative to DMSO: 0.912
[3]; 1 uM
  Burkin Assay in Myoblasts, signal relative to DMSO: 0.864
[3]; 5 uM
  Burkin Assay in Myoblasts, signal relative to DMSO: 0.8357
[3]; 10 uM
  Burkin Assay in Myoblasts, signal relative to DMSO: 0.6794
[3]; 20 uM
  Burkin Assay in Myoblasts, signal relative to DMSO: 0.3052
[3]; 40 uM
  Burkin Assay in Myoblasts, signal relative to DMSO: 0.05093

## N#Cc1ccccc1S(=O)(=O)N1CCN(C(=O)C2CCCCC2)CC1 [MLS002251986-01]
[1]; 5 uM
  CMV-LACZ in Myotubes, signal relative to DMSO: 0.9831
[1]; 10 uM
  CMV-LACZ in Myotubes, signal relative to DMSO: 0.9609
[1]; 20 uM
  CMV-LACZ in Myotubes, signal relative to DMSO: 0.8238
[1]; 40 uM
  CMV-LACZ in Myotubes, signal relative to DMSO: 0.9776
[2]; 0.5 uM
  Burkin Assay in Myotubes, α7 integrin LacZ reporter signal relative to DMSO: 1.121
[2]; 1 uM
  Burkin Assay in Myotubes, α7 integrin LacZ reporter signal relative to DMSO: 0.9515
[2]; 5 uM
  Burkin Assay in Myotubes, α7 integrin LacZ reporter signal relative to DMSO: 1.073
[2]; 10 uM
  Burkin Assay in Myotubes, α7 integrin LacZ reporter signal relative to DMSO: 1.088
[2]; 20 uM
  Burkin Assay in Myotubes, α7 integrin LacZ reporter signal relative to DMSO: 0.9882
[2]; 40 uM
  Burkin Assay in Myotubes, α7 integrin LacZ reporter signal relative to DMSO: 0.9112
[3]; 0.5 uM
  Burkin Assay in Myoblasts, signal relative to DMSO: 1.046
[3]; 1 uM
  Burkin Assay in Myoblasts, signal relative to DMSO: 0.9231
[3]; 5 uM
  Burkin Assay in Myoblasts, signal relative to DMSO: 0.9512
[3]; 10 uM
  Burkin Assay in Myoblasts, signal relative to DMSO: 0.8667
[3]; 20 uM
  Burkin Assay in Myoblasts, signal relative to DMSO: 0.9793
[3]; 40 uM
  Burkin Assay in Myoblasts, signal relative to DMSO: 0.9184

## Cc1cccc(NC(=O)c2cc3ccccc3oc2=O)c1 [MLS001209245-01]
[1]; 5 uM
  CMV-LACZ in Myotubes, signal relative to DMSO: 0.8568
[1]; 10 uM
  CMV-LACZ in Myotubes, signal relative to DMSO: 0.9675
[1]; 20 uM
  CMV-LACZ in Myotubes, signal relative to DMSO: 0.9662
[1]; 40 uM
  CMV-LACZ in Myotubes, signal relative to DMSO: 0.9952
[2]; 0.5 uM
  Burkin Assay in Myotubes, α7 integrin LacZ reporter signal relative to DMSO: 1.113
[2]; 1 uM
  Burkin Assay in Myotubes, α7 integrin LacZ reporter signal relative to DMSO: 1.245
[2]; 5 uM
  Burkin Assay in Myotubes, α7 integrin LacZ reporter signal relative to DMSO: 0.9667
[2]; 10 uM
  Burkin Assay in Myotubes, α7 integrin LacZ reporter signal relative to DMSO: 0.9979
[2]; 20 uM
  Burkin Assay in Myotubes, α7 integrin LacZ reporter signal relative to DMSO: 0.6876
[2]; 40 uM
  Burkin Assay in Myotubes, α7 integrin LacZ reporter signal relative to DMSO: 0.5729
[3]; 0.5 uM
  Burkin Assay in Myoblasts, signal relative to DMSO: 1.039
[3]; 1 uM
  Burkin Assay in Myoblasts, signal relative to DMSO: 1.132
[3]; 5 uM
  Burkin Assay in Myoblasts, signal relative to DMSO: 1.021
[3]; 10 uM
  Burkin Assay in Myoblasts, signal relative to DMSO: 1.071
[3]; 20 uM
  Burkin Assay in Myoblasts, signal relative to DMSO: 1.1
[3]; 40 uM
  Burkin Assay in Myoblasts, signal relative to DMSO: 1.039
